What was measured:
[1] = target: T1, Histamine H1 receptor (Cavia porcellus, UniProt P31389); assay: Contractile effects antagonized by mepyramine (0.3-100 nM) against Histamine H1 receptor in guinea pig ileum; format: functional, tissue-based; settings: read-out: pA2 (converted)
[2] = target: T1, Histamine H1 receptor; assay: Compound was tested for the contractile effects antagonized by mepyramine (1-1000 nM) against Histamine H1 receptor of guinea pig aorta.; format: functional; settings: read-out: pA2 (converted)
[3] = target: Histamine H1 receptor (Cavia porcellus) (UniProt P31389); assay: Relative potency against Histamine H1 receptor in guinea pig ileum.; format: functional, tissue-based
[4] = target: Histamine H1 receptor (Cavia porcellus) (UniProt P31389); assay: Compound was tested for its […] in the presence of mepyramine (1-1000 nM) against Histamine H1 receptor of guinea pig aorta.; format: functional
[5] = target: Histamine H1 receptor (Cavia porcellus) (UniProt P31389); assay: Compound was tested for binding affinity against guinea pig ileum; format: tissue-based
[6] = target: Histamine H3 receptor (Cavia porcellus, UniProt Q9JI35); assay: Compound was tested for the agonist activity against histamine H3 receptor of guinea pig ileum; format: functional, tissue-based; settings: read-out: pA2 (converted)
[7] = target: Muscarinic acetylcholine receptor M3 (Cavia porcellus, UniProt Q8VH26); assay: Compound was tested for its agonist activity against M3-acetylcholine receptor of guinea pig ileum.; format: functional, tissue-based; settings: read-out: pA2 (converted)
[8] = target: Histamine H2 receptor (Cavia porcellus) (UniProt P47747); assay: Compound was tested for agonist activity against histamine H2 receptor of guinea pig atrium; format: functional, tissue-based; settings: Cardiac atrium
[9] = target: Histamine H1 receptor (Cavia porcellus) (UniProt P31389); assay: Relative potency against Histamine H1 receptor of guinea pig aorta; format: functional, tissue-based
[10] = target: Histamine H1 receptor (Cavia porcellus) (UniProt P31389); assay: Partial agonist activity with mepyramine against Histamine H1 receptor in guinea pig ileum.; format: functional, tissue-based
[11] = target: Histamine H1 receptor (Cavia porcellus) (UniProt P31389); assay: Partial agonist activity against Histamine H1 receptor in guinea pig ileum.; format: functional, tissue-based
[12] = target: Histamine H1 receptor (Cavia porcellus) (UniProt P31389); assay: Partial agonist activity against Histamine H1 receptor in guinea pig aorta; format: functional, tissue-based
[13] = target: Histamine H1 receptor (Cavia porcellus) (UniProt P31389); assay: Compound was tested for its partial agonist activity in the presence of 10 nM mepyramine against Histamine H1 receptor in guinea pig ileum.; format: functional, tissue-based
[14] = target: Histamine H1 receptor (Cavia porcellus) (UniProt P31389); assay: Compound was tested for its partial agonist activity in the presence of 1 nM mepyramine against Histamine H1 receptor in guinea pig ileum.; format: functional, tissue-based
[15] = target: Histamine H1 receptor (Cavia porcellus) (UniProt P31389); assay: Compound was tested for its partial agonist activity in the presence of 100 nM mepyramine against Histamine H1 receptor in guinea pig ileum.; format: functional, tissue-based

Histamine H2 receptor (Cavia porcellus), sequence (P47747 whole entry): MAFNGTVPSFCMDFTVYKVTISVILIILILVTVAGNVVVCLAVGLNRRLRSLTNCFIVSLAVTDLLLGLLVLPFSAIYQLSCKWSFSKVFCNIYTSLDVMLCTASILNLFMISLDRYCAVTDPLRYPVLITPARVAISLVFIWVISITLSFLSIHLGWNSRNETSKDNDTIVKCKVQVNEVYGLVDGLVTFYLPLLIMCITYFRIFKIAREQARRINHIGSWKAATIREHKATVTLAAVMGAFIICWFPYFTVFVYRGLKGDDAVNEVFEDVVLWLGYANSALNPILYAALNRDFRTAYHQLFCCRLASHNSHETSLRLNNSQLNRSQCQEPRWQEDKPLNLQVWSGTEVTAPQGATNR
Histamine H3 receptor, sequence (Q9JI35 whole entry): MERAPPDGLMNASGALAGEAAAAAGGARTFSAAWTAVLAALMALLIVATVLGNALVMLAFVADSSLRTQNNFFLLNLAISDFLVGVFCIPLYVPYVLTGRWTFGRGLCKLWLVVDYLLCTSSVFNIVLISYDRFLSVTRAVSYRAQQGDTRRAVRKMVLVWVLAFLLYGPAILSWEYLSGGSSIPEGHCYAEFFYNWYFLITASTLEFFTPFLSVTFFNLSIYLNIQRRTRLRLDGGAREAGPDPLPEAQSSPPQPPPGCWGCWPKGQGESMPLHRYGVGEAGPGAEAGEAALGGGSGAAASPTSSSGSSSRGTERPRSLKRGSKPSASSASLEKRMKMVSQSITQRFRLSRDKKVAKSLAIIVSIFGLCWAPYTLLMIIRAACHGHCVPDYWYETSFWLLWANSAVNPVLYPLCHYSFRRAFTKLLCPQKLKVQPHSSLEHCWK
Histamine H1 receptor (Cavia porcellus), sequence (P31389 whole entry): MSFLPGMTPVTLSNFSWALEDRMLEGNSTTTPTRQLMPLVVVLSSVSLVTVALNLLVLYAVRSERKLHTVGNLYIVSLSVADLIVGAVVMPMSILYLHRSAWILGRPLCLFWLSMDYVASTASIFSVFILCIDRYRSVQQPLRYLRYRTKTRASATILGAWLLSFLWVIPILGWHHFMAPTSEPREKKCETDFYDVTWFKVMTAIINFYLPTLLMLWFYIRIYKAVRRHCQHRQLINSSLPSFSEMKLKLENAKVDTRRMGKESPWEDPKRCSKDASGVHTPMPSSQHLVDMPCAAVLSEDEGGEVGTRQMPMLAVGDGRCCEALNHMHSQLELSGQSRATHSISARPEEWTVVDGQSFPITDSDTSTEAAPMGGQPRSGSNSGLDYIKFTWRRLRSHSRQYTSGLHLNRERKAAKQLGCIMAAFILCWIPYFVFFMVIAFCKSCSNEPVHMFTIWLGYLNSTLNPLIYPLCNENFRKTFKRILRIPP
T1 sequence (P31389 whole entry): as above
Muscarinic acetylcholine receptor M3, sequence (Q8VH26 whole entry): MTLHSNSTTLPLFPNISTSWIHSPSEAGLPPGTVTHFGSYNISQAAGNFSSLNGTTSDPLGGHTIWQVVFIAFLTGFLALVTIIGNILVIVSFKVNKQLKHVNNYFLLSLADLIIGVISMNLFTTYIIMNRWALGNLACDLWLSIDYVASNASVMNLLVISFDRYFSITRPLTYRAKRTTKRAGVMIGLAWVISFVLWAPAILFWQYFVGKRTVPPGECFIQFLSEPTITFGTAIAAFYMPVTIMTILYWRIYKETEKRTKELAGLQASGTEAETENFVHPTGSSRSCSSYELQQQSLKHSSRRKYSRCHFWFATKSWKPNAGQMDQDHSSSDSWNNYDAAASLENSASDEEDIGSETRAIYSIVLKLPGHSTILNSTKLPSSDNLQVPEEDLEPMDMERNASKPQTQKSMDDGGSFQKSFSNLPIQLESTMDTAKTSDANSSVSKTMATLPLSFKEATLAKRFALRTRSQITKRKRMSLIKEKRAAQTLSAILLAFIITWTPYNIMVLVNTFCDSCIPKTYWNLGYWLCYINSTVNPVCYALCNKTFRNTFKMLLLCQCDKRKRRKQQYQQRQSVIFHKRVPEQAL

Row | Compound | Kb [1] | Kb [2] | Relative potency [3] | Emax [4] | pKp [5] | Kb [6] | Kb [7] | pD2 [8] | Relative potency [9] | Emax [10] | Emax [11] | Emax [12] | Emax [13] | Emax [14] | Emax [15]
1 | CNCCc1c[nH]c(-c2cccc(C(F)(F)F)c2)n1 | 0.000912 µM | 0.000832 µM | 174% | 66% | 6.47 | 4.37 µM | 115 µM | 4.04 | 217% | 77% | 97% | 59% |  |  | 
2 | FC(F)(F)c1cccc(-c2nc(CCNC3CC3)c[nH]2)c1 | 0.000741 µM |  | 28% |  | 6.12 |  |  | 4.36 |  | 20% | 36% |  |  |  | 
3 | CN(C)CCc1c[nH]c(-c2cccc(C(F)(F)F)c2)n1 | 0.0012 µM | 0.00141 µM | 95% | 64% | 6.39 | 1.12 µM | 26.9 µM | 4.56 | 169% | 67% | 88% | 54% |  |  | 
4 | NCCc1c[nH]c(-c2cccc(C(F)(F)F)c2)n1 |  |  | 128% |  | 6.23 |  |  | 3.48 | 94% |  | 100% | 80% | 80% | 97% | 65%
5 | NCCc1c[nH]cn1 |  |  |  | 100% |  |  |  |  |  | 100% | 100% | 100% |  |  | 
6 | CCNCCc1c[nH]c(-c2cccc(C(F)(F)F)c2)n1 | 0.00105 µM |  | 30% |  | 5.68 | 2.34 µM | 69.2 µM | 4.55 |  | 40% | 63% |  |  |  | 
7 | NCCc1cnc(-c2cccc(C(F)(F)F)c2)[nH]1 | 0.000891 µM | 0.000977 µM |  |  |  | 6.17 µM | 107 µM |  |  |  |  |  |  |  | 

More lines, now with the values ahead:

Row | Kb [1] | Kb [2] | Relative potency [3] | Emax [4] | pKp [5] | Kb [6] | Kb [7] | pD2 [8] | Relative potency [9] | Emax [10] | Emax [11] | Emax [12] | Emax [13] | Emax [14] | Emax [15] | Compound
8 | 0.000741 µM | 0.000977 µM | 109% | 75% | 6.17 | 11.7 µM | 112 µM | 3.86 | 43% | 71% | 95% | 76% |  |  |  | CNCCc1c[nH]c(-c2cccc(Br)c2)n1
9 | 0.000708 µM | 0.00115 µM | 87% | 49% | 6.2 | 1.45 µM | 64.6 µM | 4.74 | 31% | 58% | 81% | 58% |  |  |  | CN(C)CCc1c[nH]c(-c2cccc(Br)c2)n1
10 | 0.000741 µM | 0.00126 µM |  |  | 5.97 | 6.31 µM | 155 µM |  |  |  | 100% | 64% |  |  |  | NCCc1c[nH]c(-c2cccc(Br)c2)n1

— ChEMBL document CHEMBL1130586 (Bioorg Med Chem Lett, 1998)
